# Molecular target: Toll-like receptor 1/2 (Homo sapiens, UniProt O60603+Q15399)
# Experiment: TBD: TBD
# Type: protein-complex assay
# Sequence of Toll-like receptor 1/2 (O60603 whole entry): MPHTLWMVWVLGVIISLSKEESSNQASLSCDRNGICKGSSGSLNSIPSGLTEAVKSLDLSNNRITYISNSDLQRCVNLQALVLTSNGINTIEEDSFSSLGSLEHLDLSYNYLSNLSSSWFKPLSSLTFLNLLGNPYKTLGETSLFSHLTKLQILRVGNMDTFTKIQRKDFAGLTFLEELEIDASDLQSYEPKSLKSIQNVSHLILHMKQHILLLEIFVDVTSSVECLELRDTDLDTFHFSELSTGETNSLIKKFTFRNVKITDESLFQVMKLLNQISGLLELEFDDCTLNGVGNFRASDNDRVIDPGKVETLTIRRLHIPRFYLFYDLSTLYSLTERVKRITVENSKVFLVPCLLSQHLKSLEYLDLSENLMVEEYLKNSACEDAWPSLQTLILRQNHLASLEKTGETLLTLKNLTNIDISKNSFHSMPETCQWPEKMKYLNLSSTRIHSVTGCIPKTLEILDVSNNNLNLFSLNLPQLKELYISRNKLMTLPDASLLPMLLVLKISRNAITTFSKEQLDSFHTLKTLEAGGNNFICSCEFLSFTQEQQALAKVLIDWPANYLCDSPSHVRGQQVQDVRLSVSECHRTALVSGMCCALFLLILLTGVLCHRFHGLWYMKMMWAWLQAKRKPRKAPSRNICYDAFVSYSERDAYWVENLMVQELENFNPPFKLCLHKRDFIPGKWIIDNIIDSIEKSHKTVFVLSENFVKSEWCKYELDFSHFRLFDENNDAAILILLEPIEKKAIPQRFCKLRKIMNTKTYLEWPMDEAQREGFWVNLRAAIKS
# Sequence of Toll-like receptor 1/2 (Q15399 whole entry): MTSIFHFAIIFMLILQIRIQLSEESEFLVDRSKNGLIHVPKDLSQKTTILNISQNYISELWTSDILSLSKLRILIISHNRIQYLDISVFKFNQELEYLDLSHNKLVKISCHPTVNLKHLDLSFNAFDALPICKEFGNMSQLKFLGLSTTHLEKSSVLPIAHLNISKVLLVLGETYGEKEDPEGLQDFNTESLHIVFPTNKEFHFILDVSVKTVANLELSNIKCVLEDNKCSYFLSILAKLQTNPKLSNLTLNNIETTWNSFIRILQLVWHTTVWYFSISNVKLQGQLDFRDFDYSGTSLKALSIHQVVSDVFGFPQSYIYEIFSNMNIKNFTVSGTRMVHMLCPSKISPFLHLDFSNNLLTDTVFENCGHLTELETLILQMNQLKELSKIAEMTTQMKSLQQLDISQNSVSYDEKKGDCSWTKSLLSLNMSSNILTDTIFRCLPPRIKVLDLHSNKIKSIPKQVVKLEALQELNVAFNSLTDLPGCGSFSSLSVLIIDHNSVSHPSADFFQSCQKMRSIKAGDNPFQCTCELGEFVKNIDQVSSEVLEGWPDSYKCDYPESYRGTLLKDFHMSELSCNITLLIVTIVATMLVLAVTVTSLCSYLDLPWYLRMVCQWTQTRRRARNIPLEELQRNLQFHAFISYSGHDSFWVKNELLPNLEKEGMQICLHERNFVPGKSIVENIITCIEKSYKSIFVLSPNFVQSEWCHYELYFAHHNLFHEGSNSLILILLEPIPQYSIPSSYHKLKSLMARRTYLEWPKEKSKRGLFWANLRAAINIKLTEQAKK
row,Compound,EC50
1,CNc1ccc([N+](=O)[O-])cc1-n1cnc(-c2ccc(C(F)(F)F)cc2OCCN)c1,> 1 µM
2,O=[N+]([O-])c1ccc(-c2nc(-c3ccc(C(F)(F)F)cc3)cs2)cc1,> 1 µM
3,Oc1cc(C(F)(F)F)ccc1-c1csc(-c2ccc(C(F)(F)F)cc2)n1,> 1 µM
4,O=[N+]([O-])c1ccc(Cl)c(-c2nc(-c3ccc(C(F)(F)F)cc3O)cs2)c1,> 1 µM
5,COc1ccc(-c2nc(-c3ccc(C(F)(F)F)cc3O)cs2)cc1,> 1 µM

# Results, then the compound that gave them:
row,EC50,Compound
1,> 1 µM,FC(F)(F)c1ccc(-c2csc(-c3ccc(C(F)(F)F)cc3)n2)cc1
2,0.0491 µM,CNc1ccc([N+](=O)[O-])cc1-n1cnc(-c2ccc(C(F)(F)F)cc2OS(=O)(=O)O)c1
